Source: patent US5302602A, “Tricyclic thromboxane A2 antagonists” (Kyowa Hakko Kogyo Co., Ltd., priority 1987, dated 1994)
Where two headings read alike, the source gives them in different places.

Tests used:
TXA2 receptor = target: T1, TXA2 receptor (Cavia porcellus, UniProt A0A286Y4I8); assay: Binding study using 3H-U46619 (TXA2 receptor binding activities test); parameters: species or system guinea pig; settings: 20 min; test compound 1 μM; 12 nM 3H-U46619; washed guinea pig platelets; 37° C., 20 minutes; read-out: % Inhibition (3H-U46619 binding)
T1 construct: To a washed platelet suspension (1×10^8 platelets) of guinea pig; endogenous in cells; host or cells: washed guinea pig platelets
T1 sequence (A0A286Y4I8 1-347): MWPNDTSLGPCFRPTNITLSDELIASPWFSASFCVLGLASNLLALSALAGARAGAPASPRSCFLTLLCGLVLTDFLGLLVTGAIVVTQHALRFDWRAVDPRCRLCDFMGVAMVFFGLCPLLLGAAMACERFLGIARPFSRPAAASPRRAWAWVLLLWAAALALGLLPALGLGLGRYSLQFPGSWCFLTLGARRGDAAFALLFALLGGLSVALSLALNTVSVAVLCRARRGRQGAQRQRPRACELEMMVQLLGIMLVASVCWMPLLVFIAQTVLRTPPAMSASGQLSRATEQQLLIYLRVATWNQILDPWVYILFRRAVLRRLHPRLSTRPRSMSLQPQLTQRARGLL
Protocol: Receptor binding was determined by a modified method of Kattelman et al. (Thrombosis Research, 41, 471 (1986)].
To a washed platelet suspension (1×10^8 platelets) of guinea pig were added 12 nM of tritium-labeled U46619 (^3 H-U46619; NEN Co., Ltd.) and a test compound (final concentration: 1 μM) solution. After keeping at 37° C. for 20 minutes, the mixture was rapidly filtered through a glass fiber filter paper (GF/C; Whatman). Immediately, the filter paper was washed 5 times with 3 ml of ice-cold 50 mM Tris-hydroxymethylaminomethane buffer (containing 100 mM sodium chloride). The glass fiber filter was transferred to a vial and a scintillator (Ex-H; manufactured by Wako Pure Chemical Industries Co., Ltd.) was added thereto. The radioactivity was determined with a liquid scintillation counter.
It is already known that ^3 H-U46619 is capable of binding with TXA2 receptor (see the publication supra). An inhibitory activity of the test compound against this binding means an ability of binding with the TXA2 receptor. It is also known that a good relationship exists between this binding activity and the anti-platelet activity (TXA2 antagonizing test).
An inhibitory activity (binding activity) of the test compound was calculated by the following equation. [formula]
Amount of the total binding is an amount of ^3 H-U46619-bound radioactivity in the absence of a test compound.
The amount of non-specific binding is used to mean an amount of ^3 H-U46619-bound radioactivity in the presence of 10 μM U-46619.
The amount bound in the presence of a test compound is an amount of ^3 H-U46619-bound radioactivity in the presence of a test compound in various concentrations.

mice = assay: Acute toxicity test; type: in vivo; settings: mortality observed for seven days
Protocol: Using three dd strain male mice weighing 20±1 g, a test compound was orally (po; 300 mg/kg) or intraperitoneally (ip; 100 mg/kg) administered. MLD (the minimum lethal dose) was determined by observing the mortality for seven days after administration.

[1] = system: homologous passive cutaneous anaphylaxis (PCA); assay: Antiallergic activity test: homologous passive cutaneous anaphylaxis (PCA) test for 48 hours using rats; type: in vivo, rat (Wistar strain, male); settings: Rattus norvegicus, po, minimum dose with at least one of 3 rats showing PCA inhibition rate 50% or more, read-out: Antiallergic Activity (MED), minimum effective dose
Protocol: Antiallergic activity was examined in accordance with the passive cutaneous anaphylaxis (PCA) test using rats. As test animals, Wistar strain male rats weighing 180 to 220 g were used to collect antiserum and for the PCA test, Wistar strain male rats weighing 120 to 140 g were used.
Anti-EWA rat serum was prepared according to the method of Stotland and Share [Can. J. Physiol. Pharmacol., 52, 1114 (1974)]. That is, 1 mg of EWA was mixed with 20 mg of aluminum hydroxide gel and 0.5 ml of pertussis-diphtberia-tetanus mixed vaccine. The mixture was subcutaneously administered to the rat paw in 4 portions. Fourteen days after, blood was collected from the carotid artery and the serum was isolated and stored in a state frozen at -80° C. Titer of this antiserum to homologous PCA for 48 hours was 1:32.
Three rats were used per group. After the hair at the back was cut, 0.05 ml each of anti-EWA rat serum diluted to 8-fold with physiological saline was intracutaneously injected to each rat at the back in 2 places to passively sensitize the rat. A test compound or its solution (physiological saline solution or CMC solution) was orally administered 47 hours after and 0.5 ml/100 g of 1% Evans Blue physiological saline containing 2 mg of antigen EWA was then intravenously administered to the tail vein an hour after the administration. Thirty minutes later, the animal was bled to death. The skin was peeled off and a leaked dye amount at the blue dyed portion was measured according to the method of Katayama et al. [Microbiol. Immunol., 22, 89 (1978)]. That is, the blue dyed portion was cut off with scissors, put into a test tube charged with 1 ml of 1 N potassium hydroxide and incubated at 37° C. for 24 hours. After 9 ml of a mixture of 0.6 N phosphate:acetone (5:13) was added to the system, the mixture was shaken followed by centrifugation at 2500 rpm for 10 minutes. The absorbancy of the supernatant at 620 nm was measured and the leaked dye amount was quantitatively determined by comparison with a calibration curve previously prepared. A value of one rat was obtained from a mean value of the two portions and an inhibition rate-of each rat was calculated according to the following equation. [formula]
The case showing that the inhibition rate is 50% or more is judged to be positive in the PCA inhibition activity and the minimum dose in which at least one out of 3 rats was recognized to be positive was defined as the minimum effective dose (MED) of the test compound.

histamine H1 receptor = target: T2, histamine H1 receptor (Cavia porcellus, UniProt P31389); assay: Binding study using 3H-pyrilamine (histamine H1 receptor binding); parameters: species or system guinea pig; settings: read-out: (%) Inhibition (3H-pyrilamine binding)
T2 construct: from tissue; host or cells: guinea pig cerebellum membranes
T2 sequence (P31389 whole entry): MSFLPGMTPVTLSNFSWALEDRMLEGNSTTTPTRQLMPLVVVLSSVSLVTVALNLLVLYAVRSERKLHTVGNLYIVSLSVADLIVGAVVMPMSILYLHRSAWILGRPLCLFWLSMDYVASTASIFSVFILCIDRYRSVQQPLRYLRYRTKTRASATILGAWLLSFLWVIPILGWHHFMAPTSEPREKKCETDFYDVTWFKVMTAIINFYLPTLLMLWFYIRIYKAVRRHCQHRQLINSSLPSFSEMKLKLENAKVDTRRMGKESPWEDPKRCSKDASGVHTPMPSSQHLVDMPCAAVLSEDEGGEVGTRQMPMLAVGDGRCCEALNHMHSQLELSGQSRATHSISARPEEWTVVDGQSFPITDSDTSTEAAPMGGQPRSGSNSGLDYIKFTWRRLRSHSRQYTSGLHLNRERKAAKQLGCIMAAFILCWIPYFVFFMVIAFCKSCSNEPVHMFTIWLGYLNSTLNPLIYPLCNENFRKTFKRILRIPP
Protocol: Receptor binding was determined by the method of chang et al. [J. Neurochem., 32, 1953 (1979)].
The cerebellum of guinea pig was suspended in a 40-fold amount (V/W) of chilled 50 mM phosphate buffer (pH 7.5) with Polytron Homogenizer (Kinematica Co., Ltd.). The suspension was centrifuged (35,500×g, 10 minutes). The resulting precipitates were resuspended in an equal amount of fresh buffer followed by centrifugation. A 100-fold amount (V/W) of chilled buffer was added to the final precipitates.
To 1 ml of the membrane suspension adjusted as described above were added 50 μl of tritium-labeled pyrilamine (^3 H-pyrilamine; NEN Co., Ltd.) and 50 μl of a test compound. The mixture was allowed to stand at 25° C. for 30 minutes, 4 ml of chilled buffer was added thereto. The mixture was rapidly filtered through a glass fiber filter (GF/C; Whatman). The filter paper was further washed three times with 5 ml of buffer. Hereafter procedures were performed in a manner similar to the TXA2 receptor binding test to determine radioactivity.
An inhibitory activity of the test compound against H1 receptor was calculated by the following equation. [formula]
Amount of the total binding is an amount of ^3 H-pyrilamine-bound radioactivity in the absence of a test compound.
The amount of non-specific binding is an amount of ^3 H-pyrilamine-bound radioactivity in the presence of 3 μM Astemizole (manufactured by Janesen Pharmaceutics).
The amount bound in the presence of a test compound is an amount of ^3 H-pyrilamine-bound radioactivity in the presence of a test compound in various concentrations.

[2] = system: guinea pig platelets (TXA2/prostaglandin H2 receptor); assay: Test on anti-platelet activity (TXA2 antagonizing test): inhibition of U-46619-induced platelet aggregation; type: cell-based; settings: Cavia porcellus, 0.05 h; minimum concentration inhibiting U-46619 (0.5-1 μM)-induced platelet aggregation by 30% or more; guinea pig PRP; read-out: TXA2 Antagonizing Activity (MEC), minimum effective concentration
Protocol: Using guinea pig platelets influence of the compounds in accordance with the present invention on platelet aggregation induced by U-46619 (9,11-dideoxy-9α,11a-methanoepoxyprostaglandin F2 α; manufactured by Cayman Chemica Co., Ltd.) which is a TXA2 /prostaglandin H2 receptor stimulant was examined.
Male guinea pig (Hartley strain; body weight, 300 to 600 g) was anesthesized by intraperitoneal administration of sodium pentobarbital (30 mg/kg) and blood was collected from the descending aorta of the abdomen with a 1/10 volume of sodium citrate. By centrifugation (KC-70: manufactured by Kubota Co., Ltd.) at 800 rpm for 10 minutes, platelet rich plasma (PRP) was collected. Platelet aggregation induced by U-46619 (0.5-1 μM) was determined by photometry [Born, G.V.R. et al., Nature (London), 194, 927-929 (1962)]. A test compound was pretreated 3 minutes prior to aggregation induction and ability of inhibiting aggregation was measured. The minimum concentration for inhibiting platelet aggregation by 30% or more was defined as the minimum effective concentration (MEC) of the test compound.

Q: For O=C(O)COc1ccc(CCNS(=O)(=O)c2ccccc2)cc1 [BM13177, reference compound], which inhibition at 1 µM (TXA2 receptor) is on record?
A: Its inhibition at 1 µM is 31%.

Q: And the “Acute Toxicity (MLD), minimum lethal dose” value (“Acute Toxicity (MLD)” below) (mice; ip)?
A: The value was > 100 mg/kg.

Q: And the “Acute Toxicity (MLD)” value (mice; po)?
A: Its value is > 300 mg/kg.

Q: What about the minimal effective dose [1] of the same compound?
A: The minimal effective dose was > 100 mg/kg.

Q: And the inhibition at 1 µM (histamine H1 receptor; test compound 10^-6 M, guinea pig cerebellum membranes, 25° C., 30 minutes)?
A: The inhibition at 1 µM was 0%.

Q: What about the minimal effective concentration [2] of the same compound?
A: The minimal effective concentration was 3 µg/mL.

Q: Which results are given for O=C(O)c1ccc2c(c1)C(SCCN1CCN(Cc3ccccc3)CC1)c1ccccc1CO2 (stereo not drawn) [Compound 11b, 11-[2-(4-Benzyl-1-piperazinyl)ethyl]thio-6,11-dihydrodibenz[b,e]oxepin-2-carboxylic acid]?
A: inhibition at 1 µM (TXA2 receptor): 70%; Acute Toxicity (MLD), minimum lethal dose (mice; ip): > 100 mg/kg; Acute Toxicity (MLD), minimum lethal dose (mice; po): > 300 mg/kg; minimal effective dose [1]: 10 mg/kg; inhibition at 1 µM (histamine H1 receptor): 95%; minimal effective concentration [2]: 1 µg/mL

Q: For O=C(O)c1ccc2c(c1)C(SCCN1CCN(S(=O)(=O)c3cccs3)CC1)c1ccccc1CO2 (stereo not drawn) [Compound 25b, 11-[2-[4-(2-Thienylsulfonyl)-1-piperazinyl]ethyl]thio-6,11-dihydrodibenz[b,e]oxepin-2-carboxylic acid.0.5 isopropanol.dihydrate], which inhibition at 1 µM (TXA2 receptor) is on record?
A: Its inhibition at 1 µM is 78%.

Q: And the “Acute Toxicity (MLD)” value (mice; ip)?
A: The value was > 100 mg/kg.

Q: What about the “Acute Toxicity (MLD)” value (mice; po) of the same compound?
A: Its value is > 300 mg/kg.

Q: And the minimal effective dose [1]?
A: The minimal effective dose was 10 mg/kg.

Q: What about the inhibition at 1 µM (histamine H1 receptor) of the same compound?
A: Its inhibition at 1 µM is 95%.

Q: And the minimal effective concentration [2]?
A: The minimal effective concentration was 3 µg/mL.
